Test results from patent publication US8236849B2, “Model for glutamate racemase inhibitors and glutamate racemase antibacterial agents” (Ohio Northern University, priority 2008, dated 2012).

Tested on: S. pneumoniae R6 strain
Experiment: Whole-cell assay on blood agar plates, inhibition zones
Type: cell-based
Conditions: 0.5, 0.75 and 1.0 μg/mL, data not shown
Protocol: Whole-cell Assays: Selected compounds were assayed against S. pneumoniae on blood agar plates as shown on FIG. 3.

Row | Compound | antibacterial activity (inhibition zones compared to DMSO)
1 | Cc1ccc(C(=O)CC(NCCc2c[nH]c3ccccc23)C(=O)O)cc1 (centres unmarked) [Compound A, 2-(2-(1H-indol-3-yl)ethylamino)-4-oxo-4-p-tolylbutanoic acid] | weaker antibacterial activity than Compound B
2 | O=C(CC(NCCc1c[nH]c2ccccc12)C(=O)O)c1ccc(F)cc1 (centres unmarked) [Compound B, 2-(2-(1H-indol-3-yl)ethylamino)-4-(4-fluorophenyl)-4-oxobutanoic acid] | significant antibacterial activity
